# Test results: the NIST ThermoML archive (doi:10.1016/j.fluid.2018.05.029)
# ± gives the expanded uncertainty stated by the source.
# Details: Liquid; Resistive pulse heating
Critical pressure [kPa],Critical temperature [K],SMILES
3730 ± 120,606 ± 6,"CN1CCN(C)CC1 [1,4-dimethylpiperazine]"
4660 ± 140,801 ± 8,O=C1CCCCCN1 [1-aza-2-cycloheptanone]
3800 ± 120,646 ± 6,"CC1CNCC(C)N1 (stereo not drawn) [2,6-dimethylpiperazine]"
5130 ± 160,718 ± 7,C[S+](C)[O-] [dimethyl sulfoxide]
